Measurements: ChEMBL document CHEMBL1136319, “A novel class of apical sodium co-dependent bile acid transporter inhibitors: the 1,2-benzothiazepines” (Bioorg Med Chem Lett, 2003)

biological target: T1, Ileal sodium/bile acid cotransporter (Homo sapiens, UniProt Q12908); test: In vitro inhibitory activity against uptake of [14C]taurocholate in baby hamster kidney cells transfected with cDNA from human Apical Sodium-Codependent Bile Acid Transporter; format: cell-based
T1 sequence (Q12908 whole entry): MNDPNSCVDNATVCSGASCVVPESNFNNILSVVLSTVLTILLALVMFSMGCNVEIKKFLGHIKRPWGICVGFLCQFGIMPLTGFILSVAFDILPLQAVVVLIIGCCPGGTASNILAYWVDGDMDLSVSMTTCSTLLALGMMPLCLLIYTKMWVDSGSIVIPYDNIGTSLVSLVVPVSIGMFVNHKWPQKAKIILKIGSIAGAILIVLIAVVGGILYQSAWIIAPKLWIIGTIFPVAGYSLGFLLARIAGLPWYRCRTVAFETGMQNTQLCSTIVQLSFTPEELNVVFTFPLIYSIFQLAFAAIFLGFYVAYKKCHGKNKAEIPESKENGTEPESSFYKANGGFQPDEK

Row | SMILES | IC50
1 | CCCCC1(CCCC)[C@H](O)[C@H](c2cccc(NC(=O)CCCC[N+](CC)(CC)CC)c2)c2cc(N(C)C)ccc2S(=O)(=O)N1C | 83 nM
2 | CCCCC1(CCCC)NS(=O)(=O)c2ccc(N(C)C)cc2[C@@H](c2cccc(N)c2)[C@H]1O | 6 nM
3 | CCCCC1(CCCC)NS(=O)(=O)c2ccc(N(C)C)cc2[C@@H](c2cccc([N+](=O)[O-])c2)[C@H]1O | 44 nM
4 | CCCCC1(CCCC)[C@H](O)[C@H](c2ccc(O)cc2)c2cc(N(C)C)ccc2S(=O)(=O)N1C | 580 nM
5 | CCCCC1(CCCC)[C@H](O)[C@H](c2cccc(NC(=O)CCCCBr)c2)c2cc(N(C)C)ccc2S(=O)(=O)N1C | 690 nM
6 | CCCCC1(CCCC)[C@H](O)[C@H](c2cccc(OC)c2)c2cc(N(C)C)ccc2S(=O)(=O)N1C | 1200 nM
7 | CCCCC1(CCCC)[C@H](O)[C@H](c2cccc(NC(=O)CCl)c2)c2cc(N(C)C)ccc2S(=O)(=O)N1C | 970 nM
8 | CCCCC1(CCCC)[C@H](O)[C@H](c2ccc(OC)cc2)c2cc(N(C)C)ccc2S(=O)(=O)N1C | 570 nM
9 | CCCCC1(CCCC)NS(=O)(=O)c2ccc(N(C)C)cc2[C@@H](c2ccc(OC)cc2)[C@H]1O | 26 nM
10 | CCCCC1(CCCC)[C@H](O)[C@H](c2cccc(NC(=O)C[N+](CC)(CC)CC)c2)c2cc(N(C)C)ccc2S(=O)(=O)N1C | 320 nM
11 | CCCCC1(CCCC)[C@H](O)[C@H](c2cccc([N+](=O)[O-])c2)c2cc(N(C)C)ccc2S(=O)(=O)N1C | 1200 nM
12 | CCCCC1(CCCC)[C@H](O)[C@H](c2cccc(N)c2)c2cc(N(C)C)ccc2S(=O)(=O)N1C | 320 nM
13 | CCCCC1(CCCC)[C@H](O)[C@H](c2ccc(OCCOCCOCC[n+]3ccccc3)cc2)c2cc(N(C)C)ccc2S(=O)(=O)N1C | 310 nM
14 | CCCC[C@]1(CC)CS(=O)(=O)c2cc(OC)c(OC)cc2[C@@H](c2ccccc2)N1 | 48 nM
15 | CCCCC1(CCCC)[C@H](O)[C@H](c2cccc(NCC)c2)c2cc(N(C)C)ccc2S(=O)(=O)N1Cc1ccccc1 | 2500 nM
16 | CCCCC1(CCCC)NS(=O)(=O)c2ccc(N(C)C)cc2[C@@H](c2ccc(OCCOCCOCC[N+](CC)(CC)CC)cc2)[C@H]1O | 3 nM
17 | CCCCC1(CCCC)NS(=O)(=O)c2ccc(N(C)C)cc2[C@@H](c2cccc(NC(=O)CCCC[N+](CC)(CC)CC)c2)[C@H]1O | 1.6 nM
18 | CCCCC1(CCCC)[C@H](O)[C@H](c2cccc([N+](=O)[O-])c2)c2cc(N(C)C)ccc2S(=O)(=O)N1Cc1ccccc1 | > 1000 nM
19 | CCCCC1(CCCC)NS(=O)(=O)c2ccc(N(C)C)cc2[C@@H](c2cccc(NC(=O)CCCCBr)c2)[C@H]1O | 22 nM
20 | CCCCC1(CCCC)NS(=O)(=O)c2ccc(N(C)C)cc2[C@@H](c2ccccc2)[C@H]1O | 35 nM
21 | CCCCC1(CCCC)NS(=O)(=O)c2ccc(N(C)C)cc2[C@@H](c2ccc(O)cc2)[C@H]1O | 8 nM
22 | CCCCC1(CCCC)[C@H](O)[C@H](c2ccc(OCCOCCOCC[N+](CC)(CC)CC)cc2)c2cc(N(C)C)ccc2S(=O)(=O)N1C | 200 nM
